Where a name gives a salt, the structure may show the parent alone. Read-outs that look alike come from different tables or passages of the source.
Columns and labels:
systolic blood pressure = test: Antihypertensive activity, reduction in systolic blood pressure, single oral medication, unanesthetized spontaneous hypertensive rat; assay type: in vivo; details: for Antihypertensive activity SH Rat AHD40 (single oral dose required to induce a 40 mm. average reduction in systolic blood pressure) / Actual reduction in blood pressure observed at the indicated dose: P.O.; for Antihypertensive activity SH Rat AHD40 (single oral dose required to induce a 40 mm. average reduction in systolic blood pressure): unanesthetized SH rat; for Actual reduction in blood pressure observed at the indicated dose: 20 mg./kg.
Method: Antihypertensive activity was determined on the basis of the observed reduction in systolic blood pressure measured according to the method of H. Kersten et al., J. Lab. and Clin. Med. 32, 1090 (1947) following a single oral medication in the unanesthetized spontaneous hypertensive rat described by Okamato et al., Japan Circulation J. 27, 282 (1963).
^a AHD40 = single oral dose required to induce a 40 mm. average

β-adrenergic = β-adrenergic blocking activity, inhibition of isoproterenol-elicited heart rate increase in pentobarbitalized dog; assay type: in vivo; details: i.v.; for Dog β-blockade AED50 (approximate intravenous dose for 50% inhibition of isoproterenol-elicited heart rate increase): pentobarbitalized dog
Method: The β-adrenergic blocking activity was determined in the pentobarbitalized dog as judged by the ability of the test compound to inhibit the elevation in heart rate elicited by a 0.5 mcg./kg. i.v. injection of isoproterenol.
^e AED50 = approximate intravenous dose required to cause 50%

[1] = system: isolated rabbit ear artery; test: Vasodilator activity, perfusion pressure in isolated rabbit ear artery
Text: (§1) Vasodilator activity was judged on the basis of observed reduction in perfusion pressure in the hind limb vasculature of the anesthetized dog determined according to the procedure described by Jandhyala et al., European J. Pharm. 17, 357 (1972), and also on the basis of percent reduction in perfusion pressure as measured in the isolated rabbit ear artery according to the method described by De LaLande et al., Aust. J. Exp. Biol. Med. Sci. 43, 639 (1965).
^d Vasodilation is expressed as the percentage reduction in perfusion

blood pressure = test: Antihypertensive activity, sustained lowering of blood pressure, repeated oral medication, unanesthetized trained renal hypertensive dog; assay type: in vivo; details: tid.
Text: Antihypertensive activity was also judged on the basis of sustained reduction of blood pressure observed in the unanesthetized trained renal hypertensive dog following repeated oral medication according to the procedure described by Lape et al., Arch.
^b MED10 = minimum repeated oral daily dose required to effect a

[2] = Acute intravenous and oral toxicity in mice; assay type: in vivo
Method: Acute intravenous and oral toxicity in mice was determined for the compound of Example 2G as follows: The compound was dissolved in distilled water and administered as the base at a volume of 10 ml./kg. for the i.v. ALD50 or 10-40 ml./kg. for the p.o. ALD50. The compound was administered in graded doses to groups of three mice each (Swiss-Webster strain males weighing 20±2 g.). Mortality occurred within 1 minute after i.v. administration and within 10 minutes after oral administration. […] The i.v. ALD50 was 75 mg./kg. and the p.o. ALD50 was 1500 mg./kg.

hind limb vasculature = test: Vasodilator activity, perfusion pressure in hind limb vasculature of anesthetized dog; assay type: in vivo; details: for Vasodilator activity Dog-Leg Perfusion AED50 (approximate intraarterial dose for 50 reduction in perfusion pressure): acetate salt; for Actual percentage reduction in perfusion pressure observed at the indicated dose: 0.025 mg./kg. intraarterial; for ED50: Canis lupus familiaris, read-out: Vasodilator activity Dog-Leg Perfusion AED50 (approximate intraarterial dose for 50 reduction in perfusion pressure)
Text: as §1
^c AED50 = approximate intraarterial dose required to cause a 50

Ba++-induced arrhythmia = test: Conversion of Ba++-induced arrhythmia in rabbits; assay type: in vivo; design: key: active (A); inactive (I); details: 5 × 10^-6 M/kg.
Method: The test procedures were carried out as follows.
Adult rabbits or either sex weighing between 1.7 and 2.3 kg. were anesthetized with 30 to 35 mg./kg. Na-pentobarbital i.v. via a marginal ear vein. Monoplar ECG pin electrodes were inserted for a lead II display on a Model 5 Grass Polygraph using standard electrocardiographic procedures. A 23 ga. hypodermic needle, attached via a polyethylene catheter to a 10 cc. syringe, was inserted into the same vein as was used for anesthesia. A BaCl2.2H2 O solution in saline was then infused at a constant volume of 0.2 cc/min. from a Harvard Apparatus Model 600 infusion pump. This infusion was not stopped until termination of the experiment. In some studies barium chloride in distilled water was used without detectable differences. The standard rate of BaCl2.2H2 O infusion was established at 0.3 mg./kg./min. (1.2×10^-6 M/kg./min.), and the concentration was adjusted appropriately in each case to accommodate the weight of the rabbit.
When the desired arrhythmia was established, the test compound was introduced as a water or saline solution into the marginal ear vein of the unused ear. The volume used was between 0.5 and 2.0 cc./kg. and was injected as a bolus over approximately 30 seconds. Deviations from standard vehicle, rate of injection and total volume administered were at the discretion of the operator. The standard initial dose of an unknown compound on the first rabbit was 5×10^-5 M/kg. In general, two to three rabbits were used to determine anti-arrhythmic activity and the dose range of activity; multiple doses were administered. Once activity and dose was indicated, two additional rabbits were employed to confirm anti-arrhythmic activity against a multifocal tachycardia.

[3] = 5 × 10^-5 M, 50 µM, acetate salt
[4] = intraarterial, anesthetized dog hind limb

| Structure (SMILES) | Antihypertensive activity SH Rat AHD40 (single oral dose required to induce a 40 mm. average reduction in systolic blood pressure) (systolic blood pressure; acetate salt) | Dog β-blockade AED50 (approximate intravenous dose for 50% inhibition of isoproterenol-elicited heart rate increase) (β-adrenergic; acetate salt) | Rabbit Ear Artery vasodilation (percentage reduction in perfusion pressure from control level) [1, 3] | Renal Hypertensive Dog MED10 (minimum repeated oral daily dose for sustained lowering of blood pressure of 10% or greater) (blood pressure) | Vasodilator activity Dog-Leg Perfusion AED50 (approximate intraarterial dose for 50 reduction in perfusion pressure) (hind limb vasculature; [4]) | Antihypertensive activity SH Rat AHD40 (single oral dose required to induce a 40 mm. average reduction in systolic blood pressure) (systolic blood pressure) | Dog β-blockade AED50 (approximate intravenous dose for 50% inhibition of isoproterenol-elicited heart rate increase) (β-adrenergic) | ED50 (hind limb vasculature; [4]) | further results |
| --- | --- | --- | --- | --- | --- | --- | --- | --- | --- |
| COc1ccc(CCC(C)NCC(O)c2ccc(O)c([S+](C)[O-])c2)cc1 (single isomer, unassigned) [Example 13C, 4-hydroxy-α-<{[3-(4-methoxyphenyl)-1-methylpropyl]amino}methyl>-3-(methylsulfinyl)benzenemethanol hydrochloride] |  |  |  |  |  |  |  |  | Antihypertensive activity SH Rat AHD40 (single oral dose required to induce a 40 mm. average reduction in systolic blood pressure) (systolic blood pressure; hydrochloride): 3 mg/kg; Dog β-blockade AED50 (approximate intravenous dose for 50% inhibition of isoproterenol-elicited heart rate increase) (β-adrenergic; hydrochloride): 0.0125 mg/kg; Rabbit Ear Artery vasodilation (percentage reduction in perfusion pressure from control level) ([1]; 1 × 10^-4 M, 100 µM, hydrochloride): 50%; Actual percentage reduction in blood pressure observed at the indicated dose (blood pressure; 0.5 mg./kg., hydrochloride): 17%; Renal Hypertensive Dog MED10 (minimum repeated oral daily dose for sustained lowering of blood pressure of 10% or greater) (blood pressure; hydrochloride): < 0.5 mg/kg |
| COc1ccc(CCC(C)NCC(O)c2ccc(O)c([S+](C)[O-])c2)cc1 (stereo not drawn) [Example 2G, 4-hydroxy-α-<{[3-(4-methoxyphenyl)-1-methylpropyl]amino}methyl>-3-(methylsulfinyl)benzenemethanol acetate salt] | 2.0 mg/kg | 0.025 mg/kg | 50% | 0.0316 mg/kg | 0.5 mg/kg |  |  |  | Antihypertensive activity (in words) (systolic blood pressure; standard pharmacological tests on representative examples): high antihypertensive activity; Time of mortality after i.v. administration ([2]; i.v.): ≤ 1 min; Symptoms of acute intoxication for the fatalities ([2]; mouse, in vivo): atoxia, loss of righting reflux, clonic convulsions and dyspnea followed by respiratory arrest; Untoward symptoms in survivors ([2]; mouse, in vivo): no untoward symptoms observed for up to 7 days for the survivors; LD50 ([2]; mouse, in vivo, iv): 75 mg/kg; LD50 ([2]; mouse, in vivo, po): 1500 mg/kg; Time of mortality after oral administration ([2]; oral): ≤ 10 min |
| COc1ccc(CCC(C)NCC(O)c2ccc(O)c([S+](C)[O-])c2)cc1 (stereo not drawn) [Example 2H, 4-hydroxy-α-<{[3-(4-methoxyphenyl)-1-methylpropyl]amino}methyl>-3-(methylsulfinyl)benzenemethanol acetate salt] | 9.0 mg/kg | 0.025 mg/kg | 20% |  | 0.5 mg/kg |  |  |  |  |
| COc1ccc(CCC(C)NCC(O)c2ccc(O)c([S+](C)[O-])c2)cc1 (stereo not drawn) [Example 4C, 4-hydroxy-α-<{[3-(4-methoxyphenyl)-1-methylpropyl]amino}methyl>-3-(methylsulfinyl)benzenemethanol acetate salt] | > 20.0 mg/kg | ~0.5 mg/kg |  |  | 0.5 mg/kg |  |  |  | Actual reduction in blood pressure observed at the indicated dose (systolic blood pressure): -33 mm. Hg; Rabbit Ear Artery vasodilation (percentage reduction in perfusion pressure from control level) ([1]; 1 × 10^-4 M, 100 µM, acetate salt): 10% |
| COc1ccc(CCC(C)NCC(O)c2ccc(O)c([S+](C)[O-])c2)cc1 (stereo not drawn) [Example 6E, 4-hydroxy-α-<{[3-(4-methoxyphenyl)-1-methylpropyl]amino}methyl>-3-(methylsulfinyl)benzenemethanol acetate salt] | 15.0 mg/kg | 0.25 mg/kg | 58% |  | > 0.025 mg/kg |  |  |  | Actual percentage reduction in perfusion pressure observed at the indicated dose (hind limb vasculature): 25% |
| COc1ccc(CCC(C)NCC(O)c2ccc(O)c([S+](C)[O-])c2)cc1 (stereo not drawn) [Example 9D, 4-hydroxy-α-<{[3-(4-methoxyphenyl)-1-methylpropyl]amino}methyl>-3-(methylsulfinyl)benzenemethanol acetate salt] | 20.0 mg/kg | 0.0125 mg/kg | 61% |  | > 0.025 mg/kg |  |  |  | Actual percentage reduction in perfusion pressure observed at the indicated dose (hind limb vasculature): 25% |
| CC(=O)O.C[S+]([O-])c1cc(C(O)CNC(C)(C)Cc2ccccc2)ccc1O (stereo not drawn) [Example 14D, α-{[(1,1-dimethyl-2-phenylethyl)amino]-methyl}-4-hydroxy-3-(methylsulfinyl)benzenemethanol acetate salt] |  |  |  |  |  | 20.0 mg/kg | < 1.0 mg/kg | 0.5 mg/kg | Actual percentage inhibition of heart rate increase above control level observed at the indicated dose (β-adrenergic; 1.0 mg./kg.): 87%; Rabbit Ear Artery vasodilation (percentage reduction in perfusion pressure from control level) ([1]; 1 × 10^-6 M, 1 µM): 29% |
| COc1ccc(CC(C)NCC(O)c2ccc(O)c([S+](C)[O-])c2)cc1OC (stereo not drawn) [Example 16C, α-<{[2-(3,4-dimethoxyphenyl)-1-methylethyl]amino}methyl>-4-hydroxy-3-(methylsulfinyl)benzenemethanol acetate salt] |  |  |  |  |  | 15.0 mg/kg | > 0.1 mg/kg |  | Actual percentage inhibition of heart rate increase above control level observed at the indicated dose (β-adrenergic; 0.1 mg./kg.): 38%; Rabbit Ear Artery vasodilation (percentage reduction in perfusion pressure from control level) ([1]; 5 × 10^-5 M, 50 µM): 75%; ED50 (hind limb vasculature): 0.5 mg/kg |
| COc1ccc(CCC(C)(C)NCC(O)c2ccc(O)c([S+](C)[O-])c2)cc1 (stereo not drawn) [Example 18D, α-<{[1,1-dimethyl-3-(4-methoxyphenyl)propyl]amino}methyl>-4-hydroxy-3-(methylsulfinyl)benzenemethanol acetate salt] |  |  |  | > 0.125 mg/kg |  | > 20.0 mg/kg | < 1.0 mg/kg | 0.5 mg/kg | Conversion of Ba++-induced Arrhythmia (Ba++-induced arrhythmia): A; Actual reduction in blood pressure observed at the indicated dose (systolic blood pressure): -26 mm. Hg; Actual percentage inhibition of heart rate increase above control level observed at the indicated dose (β-adrenergic; 1.0 mg./kg.): 100%; Rabbit Ear Artery vasodilation (percentage reduction in perfusion pressure from control level) ([1]; 1 × 10^-4 M, 100 µM): 42%; Actual percentage reduction in blood pressure observed at the indicated dose (blood pressure; 0.125 mg./kg.): 0% |
| COc1ccc(CCCNCC(O)c2ccc(O)c([S+](C)[O-])c2)cc1 (stereo not drawn) [Example 20C, 4-hydroxy-α-<{[3-(4-methoxyphenyl)propyl]amino}methyl>-3-(methylsulfinyl)benzenemethanol acetate salt] |  |  |  | > 0.125 mg/kg |  | 7.0 mg/kg | < 0.1 mg/kg | 0.5 mg/kg | Actual percentage inhibition of heart rate increase above control level observed at the indicated dose (β-adrenergic; 0.1 mg./kg.): 67%; Rabbit Ear Artery vasodilation (in words) ([1]; concentration not given): constrictor; Actual percentage reduction in blood pressure observed at the indicated dose (blood pressure; 0.125 mg./kg.): 0% |

Reference: patent US4374149A, “α-{[(Arylalkyl)amino]alkyl}-4-hydroxy-3-(lower-alkylsul finyl)benzenemethanols” (Sterling Drug Inc., priority 1978, dated 1983)
